Source: ChEMBL document CHEMBL2074562, “Substrate specificity of the rat liver Na(+)-bile salt cotransporter in Xenopus laevis oocytes and in CHO cells” (Am J Physiol, 1998)

Tests used:
Type in all cases: functional, cell-based
Conditions in all cases: hamster
[1] = biological target: T1, Hepatic sodium/bile acid cotransporter (Rattus norvegicus, UniProt P26435); experiment: TP_TRANSPORTER: inhibition of Taurocholate uptake (Taurocholate: 2.5 uM, Estradiol-3-sulfate: 68 uM) in Ntcp-expressing CHO cells
T1 sequence (P26435 whole entry): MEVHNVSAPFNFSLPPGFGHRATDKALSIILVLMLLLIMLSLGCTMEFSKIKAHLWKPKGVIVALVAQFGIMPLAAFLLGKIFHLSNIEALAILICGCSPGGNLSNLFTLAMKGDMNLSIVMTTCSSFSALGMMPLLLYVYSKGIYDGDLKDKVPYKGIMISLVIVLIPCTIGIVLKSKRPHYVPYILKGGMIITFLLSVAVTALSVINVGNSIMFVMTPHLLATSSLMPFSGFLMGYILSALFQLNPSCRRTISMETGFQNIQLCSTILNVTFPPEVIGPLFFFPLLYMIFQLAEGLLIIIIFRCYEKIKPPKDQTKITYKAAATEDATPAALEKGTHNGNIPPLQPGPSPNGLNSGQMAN

[2] = biological target: T1, Hepatic sodium/bile acid cotransporter; experiment: TP_TRANSPORTER: inhibition of Taurocholate uptake (Taurocholate: 2.5 uM, Testosterone: 200 uM) in Ntcp-expressing CHO cells
[3] = biological target: T1, Hepatic sodium/bile acid cotransporter; experiment: TP_TRANSPORTER: inhibition of Taurocholate uptake (Taurocholate: 2.5 uM, E1S: 200 uM) in Ntcp-expressing CHO cells
[4] = biological target: T1, Hepatic sodium/bile acid cotransporter; experiment: TP_TRANSPORTER: inhibition of Taurocholate uptake (Taurocholate: 2.5 uM, Progesterone: 200 uM) in Ntcp-expressing CHO cells

C[C@]12CC[C@@H]3c4ccc(OS(=O)(=O)O)cc4CC[C@H]3[C@@H]1CC[C@@H]2O
Activity [1]: inhibitor [(at a rough estmate) 5 % of control]

C[C@]12CC[C@H]3[C@@H](CCC4=CC(=O)CC[C@@]43C)[C@@H]1CC[C@@H]2O [TESTOSTERONE]
Activity [2]: inhibitor [(at a rough estmate) 50 % of control]

C[C@]12CC[C@@H]3c4ccc(OS(=O)(=O)O)cc4CC[C@H]3[C@@H]1CCC2=O [ESTRONE SULFURIC ACID]
Activity [3]: inhibitor [(at a rough estmate) 30 % of control]

CC(=O)[C@H]1CC[C@H]2[C@@H]3CCC4=CC(=O)CC[C@]4(C)[C@H]3CC[C@]12C [PROGESTERONE]
Activity [4]: inhibitor [(at a rough estmate) 70 % of control]
